# Molecular target: T1, BTK enzyme (recombinant full-length BTK, hBTK) (Homo sapiens, UniProt Q06187)
# T1 construct: recombinant protein from baculovirus-transfected Sf9 cells: full-length BTK, 6HIS-tag cleaved; 6HIS (cleaved yes); made in house; host or cells: baculovirus-transfected Sf9 cells
# Assay: Btk enzyme activity assay, LANCE TR-FRET
# Type: biochemical
# Conditions: 50 pM hBTK, 2 μM biotin-A5-peptide, 25 μM ATP, 60 minute compound & enzyme incubation, read-out: BTK binding IC50
# Procedure: BTK enzymatic activity was determined with the LANCE (Lanthanide Chelate Excite) TR-FRET (Time-resolved fluorescence resonance energy transfer) assay. In this assay, the potency (IC50) of each compound was determined from an eleven point (1:3 serial dilution; final compound concentration range in assay from 1 μM to 0.017 nM) titration curve using the following outlined procedure. To each well of a black non-binding surface Corning 384-well microplate (Corning Catalog #3820), 5 nL of compound (2000 fold dilution in final assay volume of 10 μL) was dispensed, followed by the addition of 7.5 μL of 1× kinase buffer (50 mM Hepes 7.5, 10 mM MgCl2, 0.01% Brij-35, 1 mM EGTA, 0.05% BSA & 1 mM DTT) containing 5.09 pg/μL (66.67 pM) of BTK enzyme (recombinant protein from baculovirus-transfected Sf9 cells: full-length BTK, 6HIS-tag cleaved). Following a 60 minute compound & enzyme incubation, each reaction was initiated by the addition of 2.5 μL 1× kinase buffer containing 8 μM biotinylated “A5” peptide (Biotin-EQEDEPEGDYFEWLE-NH2) (SEQ.ID.NO.: 1), and 100 μM ATP. The final reaction in each well of 10 μL consists of 50 pM hBTK, 2 μM biotin-A5-peptide, and 25 μM ATP. Phosphorylation reactions were allowed to proceed for 120 minutes. Reactions were immediately quenched by the addition of 20 uL of 1× quench buffer (15 mM EDTA, 25 mM Hepes 7.3, and 0.1% Triton X-100) containing detection reagents (0.626 nM of LANCE-Eu-W1024-anti-phosphoTyrosine antibody, PerkinElmer and 86.8 nM of Streptavidin-conjugated Dylight 650, Dyomics/ThermoFisher Scientific). After 60 minutes incubation with detection reagents, reaction plates were read on a PerkinElmer EnVision plate reader using standard TR-FRET protocol. Briefly, excitation of donor molecules (Eu-chelate:anti-phospho-antibody) with a laser light source at 337 nm produces energy that can be transferred to Dylight-650 acceptor molecules if this donor:acceptor pair is within close proximity. Fluorescence intensity at both 665 nm (acceptor) and 615 nm (donor) are measured and a TR-FRET ratio calculated for each well (acceptor intensity/donor intensity). IC50 values were determined by 4 parameter robust fit of TR-FRET ratio values vs. (Log10) compound concentrations.
# The following Table 3 provides specific IC50 values for all the examples. The IC50 values set forth below were determined according to Assay method described above.
# T1 sequence (Q06187 whole entry): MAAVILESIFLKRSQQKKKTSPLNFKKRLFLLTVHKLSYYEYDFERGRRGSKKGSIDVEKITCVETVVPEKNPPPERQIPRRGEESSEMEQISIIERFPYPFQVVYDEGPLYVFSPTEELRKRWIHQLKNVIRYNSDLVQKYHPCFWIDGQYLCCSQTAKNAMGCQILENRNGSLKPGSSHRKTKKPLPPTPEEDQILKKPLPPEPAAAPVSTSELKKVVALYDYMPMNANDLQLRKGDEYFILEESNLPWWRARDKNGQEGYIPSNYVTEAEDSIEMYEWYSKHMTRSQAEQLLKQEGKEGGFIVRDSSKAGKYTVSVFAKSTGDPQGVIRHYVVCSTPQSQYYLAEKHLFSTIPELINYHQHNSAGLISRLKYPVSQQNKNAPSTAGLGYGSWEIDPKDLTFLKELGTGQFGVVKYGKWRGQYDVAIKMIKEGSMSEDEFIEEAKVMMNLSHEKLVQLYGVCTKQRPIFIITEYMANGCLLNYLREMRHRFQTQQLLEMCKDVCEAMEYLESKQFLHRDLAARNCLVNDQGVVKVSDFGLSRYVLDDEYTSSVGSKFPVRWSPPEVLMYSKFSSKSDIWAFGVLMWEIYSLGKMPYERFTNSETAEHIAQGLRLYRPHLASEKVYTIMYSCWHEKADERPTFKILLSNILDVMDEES
row,Compound,IC50
1,"Nc1nccn2c(C34C5C6C3C3C4C5C63C(=O)O)nc(-c3ccc(Oc4ccccc4)cc3)c12 (stereo not drawn) [Example 23, 4-(8-amino-1-(4-phenoxyphenyl)imidazo[1,5-a]pyrazin-3-yl)cubane-1-carboxylic acid]",0.3 nM
2,"Nc1nccn2c(C3(C(=O)O)CCOCC3)nc(-c3ccc(Oc4ccccc4)cc3)c12 [Example 24, 4-[8-amino-1-(4-phenoxyphenyl)imidazo[1,5-a]pyrazin-3-yl]tetrahydro-2H-pyran-4-carboxylic acid]",79.6 nM
3,"C[C@]1(C(=O)O)CC[C@H](c2nc(-c3ccc(Oc4ccccc4)cc3)c3c(N)nccn32)CC1 [Example 25, Trans-4-[8-amino-1-(4-phenoxyphenyl)imidazo[1,5-a]pyrazin-3-yl]-1-methylcyclohexane carboxylic acid]",12.3 nM
